Measured values: patent publication US8349793B2, “Method for treatment of inflammatory disease and disorder” (Heal0r, Ltd., priority 2010, dated 2013)
Where no end group is shown, it is not given here.

What was measured:
keratinocytes [1] = test: Cytokine secretion in keratinocytes stimulated by LPS, TNFα or IL-17 (ELISA); format: cell-based, BALB/C mice
Procedure: To determine their effects, keratinocytes were derived from newborn BALB/C mice skin. The cells were incubated for 5 days in 24 wells plate. Cells were then incubated with PBS−/− as control or stimulated by LPS, TNFα, or IL-17. PKCα inhibitors were added as indicated. Medium containing secreted cytokines was collected after 48 hr and analyzed using ELISA. FIG. 40 is a tabular summary of cytokine secretion.
PKCδactivators were also shown to have an anti-inflammatory effect on keratinocytes and splenocytes. Keratinocytes were derived from newborn BALB/C mice skin. The cells were incubated for 5 days in 24 wells plate. Cells were then incubated with PBS−/− as control or stimulated by LPS or TNFα. The PKCδ inhibitor DAP-1 (SEQ ID NO: 16) was added. Medium containing secreted cytokines was collected after 48 hr and analyzed using ELISA. FIG. 35 is a tabular summary showing cytokine secretion in splenocytes stimulated with LPS. […] Cytokine secretion in keratinocytes stimulated by TNFα: following stimulation with 35 ng/ml TNFα. And treatment with 10 μg/ml of DAP-1, the cytokine levels of IL-1α, G-CSF, MIP-2 and KC were reduced by 95%, 70%, 20% and 30# respectively.
PKCε inhibitors were also shown to have an anti-inflammatory effect on keratinocytes. Keratinocytes were derived from newborn BALB/C mice skin. The cells were incubated for 5 days in 24 wells plate. Cells were then incubated with PBS−/− as control or stimulated by LPS or TNFα. The PKCεinhibitors EPIP-1 (SEQ ID NO: 20), EPIP-2 (SEQ ID NO: 21), or EPIP-4 (SEQ ID NO: 23) were added. Medium containing secreted cytokines was collected after 48 hr and analyzed using ELISA. FIGS. 36-39 show the results for secretion of specific cytokines while Table 8 summarizes cytokine secretion for the various PKCε inhibitors: […]

splenocytes = test: Cytokine secretion in splenocytes stimulated with LPS or TNFα (ELISA); format: cell-based, B6 mice; details: TNFα 25 ng/ml, 48 hr
Text: Inhibitory effect on activated splenocytes: Splenocytes were derived from B6 mice. […] Medium containing secreted cytokines was collected after 48 hr and analyzed using ELISA.

keratinocytes [2] = test: Keratinocyte differentiation markers (Filaggrin, Loricrin, Keratin 1); format: cell-based, C57BL/6J mice; details: concentration: EPIP1 and DAP1 1 μg/ml, 10 μg/ml, EPIP2 10 μg/ml
Procedure: Keratinocytes derived from C57BL/6J mice were incubated in medium containing Ca^2+ to induce keratinocytes differentiation. Cells were then incubated in the presence of […] (1 μg/ml). Cells were harvested, run on SDS PAGE gel and immunoblotted using anti-Filaggrin (Fil), anti Loricrin (Lor) and anti-Keratin 1 (K1) antibody.
(§1) FIGS. 7 and 8 presents a summary of expression data in keratinocytes utilizing various peptide PKCα inhibitors: MPDY-1 (SEQ ID NO: 21) as well as data for the peptide PKCα inhibitors AIP-1 (SEQ ID NO: 3), AIP-2 (SEQ ID NO: 20), AWOT-1 (SEQ ID NO: 5) and PPDY-1 (SEQ ID NO: 22). […] FIG. 8 presents a summary of expression data in keratinocytes for various peptide PKCα inhibitors.

keratinocytes [3] = test: Keratinocyte proliferation in vitro (PCNA); format: cell-based, Balb/c mice
Procedure: Primary murine keratinocytes from 2 days old Balb/c mice were grown for 5 days to reach full confluence in 0.05 mM Ca^2+ MEM medium. HO/02/10 treatment (10^−6M and 10^−5M) was applied 6 hours prior to induction of differentiation. Cells were harvested, run on SDS PAGE gel and immunoblotted using anti-PCNA antibodies. In addition, C57Black mice, 8-10 weeks of age were subjected to full thickness wounding in the upper back area to induce epidermis remodeling and differentiation. Following the wounding, mice were treated daily with HO/02/10 (ranged 40-4000 mg/kg/day) for 7 days. At the termination point, mice were euthanized and upper back skin samples were fixed in 4% paraformaldehyde solution, following paraffin embedding and slide preparation. Skin samples were then subjected to immunohistochemical staining utilizing PCNA antibody. (n=18).
as §1

keratinocytes [4] = test: Keratinocyte migration; format: cell-based; design: concentration or dose not given beside the values
[5] = LPS 1 [μg/ml], peptide [10 μg/ml], 48 hr
[6] = LPS 1 [μg/ml], peptide [1 g/ml], 48 hr
[7] = TNF [35 ng/ml], peptide [10 μg/ml], 48 hr
[8] = TNF [35 ng/ml], peptide [1 g/ml], 48 hr
[9] = keratinocytes, LPS (1 μg/ml) (EPIP4: printed 1 mg/ml), peptide concentration not given
[10] = keratinocytes, TNFa stim (35 ng/ml), 1 μg/ml of peptide (given for EPIP1, EPIP2, not for EPIP4), reduction printed with or without minus sign

PYIALNVD [EPIP-2]
G-CSF secretion (change) (keratinocytes [1]; [5]): −75% | IL-6 secretion (change) (keratinocytes [1]; [5]): −55% | IP-10 secretion (change) (keratinocytes [1]; [5]): −40% | KC secretion (change) (keratinocytes [1]; [5]): −90% | G-CSF secretion (change) (keratinocytes [1]; [6]): −50% | IL-6 secretion (change) (keratinocytes [1]; [6]): −40% | IP-10 secretion (change) (keratinocytes [1]; [6]): −50% | KC secretion (change) (keratinocytes [1]; [6]): −90% | G-CSF secretion (change) (keratinocytes [1]; [7]): −100% | IL-6 secretion (change) (keratinocytes [1]; [7]): −95% | IP-10 secretion (change) (keratinocytes [1]; [7]): (−40%) | G-CSF secretion (change) (keratinocytes [1]; [8]): −100% | IL-6 secretion (change) (keratinocytes [1]; [8]): −95% | IP-10 secretion (change) (keratinocytes [1]; [8]): (−65%) | G-CSF secretion (change) (keratinocytes [1]; [9]): −50% | IL-6 secretion (change) (keratinocytes [1]; [9]): −40% | IP-10 secretion (change) (keratinocytes [1]; [9]): −50% | KC secretion (change) (keratinocytes [1]; [9]): −90% | Reduces Chemokines IP 10 (keratinocytes [1]; [10]): Chemokines IP 10 (65%) | Reduces proinflammatory cytokines IL-6 (keratinocytes [1]; [10]): (95%), systemic cytokines G-SCF | IL-4 (% reduction in secretion) (splenocytes; peptide 1 μg/ml): 15% | IL-17 (% reduction in secretion) (splenocytes; peptide 1 μg/ml): 80% | IP-10 (% reduction in secretion) (splenocytes; peptide 1 μg/ml): 20% | G-CSF (% reduction in secretion) (splenocytes; peptide 10 μg/ml): 30% | IL-6 (% reduction in secretion) (splenocytes; peptide 10 μg/ml): 25% | IL-10 (% reduction in secretion) (splenocytes; peptide 10 μg/ml): 30% | IL-17 (% reduction in secretion) (splenocytes; peptide 10 μg/ml): 85% | IP-10 (% reduction in secretion) (splenocytes; peptide 10 μg/ml): 10% | Differentiation markers: granular differentiation (keratinocytes [2]): Reduces granular | Differentiation markers: spainous differentiation (keratinocytes [2]): Slightly induces | Proliferation markers (keratinocytes [3]; 1 μg/ml): Induces | Proliferation markers (keratinocytes [3]; 10 μg/ml): Reduce | Migration, Induces (keratinocytes [4]): (200%)
